Publication PMC11091976, “Shorter Peptide Nucleic Acid Probes Improve Affibody-Mediated Peptide Nucleic Acid-Based Pretargeting” (ACS Pharmacology & Translational Science, 2024)

Experiments:
[1] = type: physicochemical
Experimental: Table 4 summarizes the radiochemical yield (RCY), purity, and stability test results for all ^177Lu-labeled probes in this study. […] Such radiolabeling yield necessitated purification to achieve the requisite radiochemical purity of over 95%. Purification was conducted using a NAP-5 column, eluted with 1% BSA in PBS, resulting in radiochemical purities of 99 ± 1.7% for [^177Lu]Lu-Z-HP9 and 98.5 ± 2.2% for [^177Lu]Lu-Z-HP12, respectively. […] Thus, it was essential that the label was stable, and the compound was pure. […] The RCY for the secondary probes exceeded 97%, and consequently, further purification was deemed unnecessary for in vitro and in vivo studies. Importantly, all probes labeled with ^177Lu remained stable in the presence of an excess amount of EDTA and in PBS as control after incubation at 37 °C for 1 h.
Radiolabeling of primary and secondary probes with ^177Lu was performed using a previously described method.[29] Briefly, 100 μL of 0.2 M of NH4Ac, pH 5.5 was added to 30 μg of the probe (100 μL of 0.3 mg/mL stock in NH4Ac) to provide right pH for the labeling. The mixture was heated at 95 °C for 10 min, followed by sonication for 5 min, and reheating at 95 °C for 10 min to ensure complete dissolving. […] RCY was then analyzed using iTLC developed with 0.2 M citric acid, pH 2.0. […] Samples were run in triplicates and analyzed by radio-iTLC.

Z-HP9 = test: SPR off-rate screening (single-cycle kinetics), immobilized Z-HP9; type: binding; conditions: primary probe HP9 (immobilized Z-HP9), 25 °C, PBS-T pH 7.4, 120 nM HP16/HP20 or 362 nM HP21/HP19, dissociation 150 min, 1:1 model, duplicates
Experimental: (§1) The stability of new pretargeting probe combinations was assessed using SPR, and duplex melting temperatures were measured with UV–vis spectroscopy. In SPR, a high concentration of the secondary probe was injected over immobilized primary agents, and the dissociation of the hybridized complexes was monitored over 150 min (see Figures 3A, S22, and Table 2).
(§2) We utilized SPR on a Biacore T200 instrument (Cytiva) to examine how secondary PNA probes (6-mer HP19, 7-mer HP21, 8-mer HP20, and 9-mer HP16) bind to primary agents. These experiments were conducted using dextran-coated CM5 sensor chips and PBS-T buffer at pH 7.4. The ligands were immobilized through a standard EDC/NHS coupling method, and the chip surface was sealed with ethanolamine. A reference surface with no primary agent was also included.
(§3) For ranking the off-rate (kd) of the secondary probes, we employed single-cycle kinetics (SCK) at 25 °C with a flow rate of 50 μL/min. […] Secondary PNA probes were injected at various concentrations, and dissociation was monitored for 10,000 s. To regenerate the chip surface, we used two 30 s injections of 10 mM glycine-HCl, pH 1.5.
(§4) All SPR experiments were performed in duplicate, and data analysis was conducted using the Biacore T200 Evaluation software version 2.0 with a 1:1 binding model.
(§5) Figure S22: Representative SPR sensorgrams of the dissociation phase of HP16 (9-mer), HP20 (8-mer), HP21 (7-mer) and HP19 […]
(§6) After injection with the secondary probe
(§7) (120 nM of HP16 and HP20 or 362 nM of HP21 and HP19) the dissociation of the formed complex was followed for 150 minutes. All experiments were done in duplicates, and the data presented is double-referenced (reference channel and buffer injection are subtracted).
(§8) (1 picture or pasted object on this page, not shown here)

Z-HP15 [2] = test: Multicycle kinetic SPR, immobilized Z-HP15; type: binding; conditions: MCK SPR
Experimental: M^–1 s^–1, as well as the slowest dissociation rate constant (kd) at 3.4 × 10^–5 s^–1.
as §2
Association and dissociation times were set at 700 and 1800 s, respectively, with regeneration accomplished through a 30 s injection of 10 mM glycine-HCl, pH 1.5.
as §4

ZHER2-HP15 = conditions: SPR; cited from earlier work
Experimental: Our previously published preclinical therapy studies are based on PNA probes having 15 complementary nucleobases.[26],[27] Upon hybridization, these probes form an exceptionally stable duplex with a melting temperature (Tm) in solution of 86–88 °C. In a Biacore experiment, less than 5% of the hybridized secondary PNA detached during a 17 h long dissociation phase.[20] It is likely that shorter probe pairs than the original 15-mers provide enough binding affinity and specificity to achieve an efficient pretargeted radionuclide therapy in vivo.

Z-HP15 [3] = test: SPR off-rate screening (single-cycle kinetics), immobilized Z-HP15; type: binding; conditions: primary probe HP15 (immobilized Z-HP15), 25 °C, PBS-T pH 7.4, 120 nM HP16/HP20 or 362 nM HP21/HP19, dissociation 150 min, 1:1 model, duplicates
Experimental: as §1, §2, §3, §4, §5, §6, §7, §8

| kd (Z-HP9) | Kd (Z-HP15 [2]; primary probe HP15, 25 °C) [nM] | kd (Z-HP15 [2]; primary probe HP15, 25 °C) | Kd (Z-HP15 [2]; primary probe HP15, 37 °C) [nM] | kd (Z-HP15 [2]; primary probe HP15, 37 °C) | kd (Z-HP15 [3]) | Molecule | stability (×500 EDTA), 37 °C, 1 h [1] | stability in PBS, 37 °C, 1 h [1] | ka (Z-HP15 [2]; primary probe HP15 (Z-HP15 immobilized), 25 °C, 1.4-70 nM, 1:1 model, duplicates) | ka (Z-HP15 [2]; primary probe HP15, 37 °C) | Kd (ZHER2-HP15) [nM] | kd (ZHER2-HP15) |
| --- | --- | --- | --- | --- | --- | --- | --- | --- | --- | --- | --- | --- |
|  |  |  |  |  |  | NC(=O)[C@H](Cc1ccc(O)cc1)NC(=O)[C@H](CCC(=O)O)NC(=O)[C@H](CCC(=O)O)NC(=O)CN(CCNC(=O)CN(CCNC(=O)CN(CCNC(=O)CN(CCNC(=O)CN(CCNC(=O)CN(CCNC(=O)CN(CCNC(=O)CN(CCNC(=O)[C@H](CO)NC(=O)[C@H](CO)NC(=O)COCCOCCNC(=O)CN1CCN(CC(=O)O)CCN(CC(=O)O)CCN(CC(=O)O)CC1)C(=O)Cn1cnc2c(N)ncnc21)C(=O)Cn1ccc(N)nc1=O)C(=O)Cn1cnc2c(N)ncnc21)C(=O)Cn1ccc(N)nc1=O)C(=O)Cn1ccc(N)nc1=O)C(=O)Cn1cnc2c(N)ncnc21)C(=O)Cn1cnc2c(=O)[nH]c(N)nc21)C(=O)Cn1cnc2c(=O)[nH]c(N)nc21 [[^177Lu]Lu-HP20, metal not drawn] | 99.5 ± 0.7 | 100 ± 0 |  |  |  |  |
| 2.5 × 10^–5 s^–1 | 0.32 | 3.4 × 10^–5 s^–1 | 0.44 | 8.1 × 10^–5 s^–1 | 1.2 × 10^–5 s^–1 | DOTA-AEEA-SS-aacaccagg-EEY-NH2 [HP16, 9-mer secondary PNA probe with DOTA] |  |  | 1.0 × 10^5 M^–1 s^–1 | 1.8 × 10^5 M^–1 s^–1 | 0.28 | 1.2 × 10^–5 s^–1 |
